Measured values published in article PMC6207370 (Xenobiotica; the fate of foreign compounds in biological …, 2017).
Like-named read-outs stand apart in the source and are kept apart here. Marks after values point to notes of the source that are not given here.

Legend:
[1] = format: in vitro ADME
[2] = Incubations with rat hepatic S9; conditions: for CLint scaled at 1 μM: male, Sprague-Dawley, Table 1, triplicate, 2–3 experiments; for CLint scaled at 1 μM / CLHEP (hepatic clearance): rat; for CLHEP (hepatic clearance): well-stirred model from S9 CLint (+NADPH), uncorrected for fraction unbound
[3] = Incubations with human hepatic S9; conditions: for CLint scaled at 1 μM: both, human; for Fm,AO Method A (fraction metabolized by AO) / Fm,AO Method B (fraction metabolized by AO) / Fm,AO (fraction metabolized by AO): human hepatic S9; for Fm,AO Method A (fraction metabolized by AO): method A (eq. 4); for Fm,AO Method B (fraction metabolized by AO): method B (eq. 5), values > 1 assumed equal to 1; for Fm,AO (fraction metabolized by AO): methods A and B taken together (data from Table 3)
[4] = Incubations with mouse hepatic S9; conditions: for CLint scaled at 1 μM: male, CD-1, mouse, Table 1, triplicate, 2–3 experiments; for Fm,AO Method A (fraction metabolized by AO): method A (eq. 4); for Fm,AO Method B (fraction metabolized by AO): method B (eq. 5), values > 1 assumed equal to 1
[5] = Incubations with minipig hepatic S9; conditions: for CLint scaled at 1 μM: male, Gottingen, minipig, Table 1, triplicate, 2–3 experiments; for Fm,AO Method A (fraction metabolized by AO): method A (eq. 4); for Fm,AO Method B (fraction metabolized by AO): method B (eq. 5), values > 1 assumed equal to 1
[6] = Incubations with guinea pig hepatic S9; conditions: guinea pig hepatic S9; for Fm,AO Method A (fraction metabolized by AO): method A (eq. 4); for Fm,AO Method B (fraction metabolized by AO): method B (eq. 5), values > 1 assumed equal to 1
[7] = Incubations with rhesus monkey hepatic S9; conditions: rhesus monkey hepatic S9; for Fm,AO Method A (fraction metabolized by AO): method A (eq. 4); for Fm,AO Method B (fraction metabolized by AO): method B (eq. 5), values > 1 assumed equal to 1
[8] = Incubations with cynomolgus monkey hepatic S9; conditions: cynomolgus monkey hepatic S9; for Fm,AO Method A (fraction metabolized by AO): method A (eq. 4); for Fm,AO Method B (fraction metabolized by AO): method B (eq. 5), values > 1 assumed equal to 1
[9] = Allometric scaling; design: species or system human; conditions: exponent 0.75
[10] = mouse; ref Dalvie D, Zhang C, Chen W, et al. (2010); cited from earlier work
[11] = rat; ref Dalvie D, Zhang C, Chen W, et al. (2010); cited from earlier work
[12] = cynomolgus monkey; ref Dalvie D, Zhang C, Chen W, et al. (2010); cited from earlier work
[13] = Single-species scaling

SMILES | CLHEP (hepatic clearance) [2] [L/h/kg] | Fm,AO Method A (fraction metabolized by AO) [3] | Fm,AO Method B (fraction metabolized by AO) [3] | Fm,AO (fraction metabolized by AO) [3] | Fm,AO Method A (fraction metabolized by AO) ([4]; mouse hepatic S9) | Fm,AO Method B (fraction metabolized by AO) ([4]; mouse hepatic S9) | Fm,AO Method A (fraction metabolized by AO) ([5]; minipig hepatic S9) | Fm,AO Method B (fraction metabolized by AO) ([5]; minipig hepatic S9) | Fm,AO Method A (fraction metabolized by AO) [6] | Fm,AO Method B (fraction metabolized by AO) [6] | Fm,AO Method A (fraction metabolized by AO) [7] | Fm,AO Method B (fraction metabolized by AO) [7] | Fm,AO Method A (fraction metabolized by AO) [8] | Fm,AO Method B (fraction metabolized by AO) [8] | other results
CCN(C(C)=O)c1cccc(-c2ccnc3c(C#N)cnn23)c1 [Zaleplon, zaleplon] | 0.762 ± 0.126 | 1 | 0.71 | ≥ 0.71 | 0.22 | 0 | 0.17 | 0 | 1 | 0.50 | 0.42 | 0.65 | 1 | 0.70 | Fm,AO, across species ([1]; cynomolgus monkey, rhesus monkey, and guinea pig S9): 0.42–0.70; Fm,AO, across species ([1]; mouse and minipig S9): ≤ 0.22; CLint scaled at 1 μM ([2]; s9, pH 7.4, CLint (intrinsic clearance) in hepatic S9, rat hepatic S9, in the presence of NADPH): 0.936 ± 0.183 L/h/kg; CLint scaled at 1 μM ([3]; s9, pH 7.4, CLint (intrinsic clearance) in hepatic S9, human hepatic S9, in the presence of NADPH, Table 1, triplicate, 2–3 experiments): 0.348 ± 0.0612 L/h/kg; CLint scaled at 1 μM ([3]; s9, pH 7.4, CLint −NADPH, human hepatic S9 without NADPH): 0.238 ± 0.081 L/h/kg; CLint scaled at 1 μM ([4]; s9, pH 7.4, CLint (intrinsic clearance) in hepatic S9, mouse hepatic S9, in the presence of NADPH): 1.46 ± 0.317 L/h/kg; CLint scaled at 1 μM ([5]; s9, pH 7.4, CLint (intrinsic clearance) in hepatic S9, minipig hepatic S9, in the presence of NADPH): 0.333 ± 0.0804 L/h/kg; Fm,AO (fraction metabolized by AO) ([5]; minipig hepatic S9, methods A and B taken together): ≤ 0.17
N=C(N)NC(=O)c1cnn(-c2cccc3ncccc23)c1C1CC1 [Zoniporide] | 3.65 ± 0.0291 | 0.77 | 0.72 | 0.72–0.77 | 0.90 | 0.90 | 0.83 | 0.97 | 0.84 | 0.97 | 0.77 | 1^# | 0.90 | 1 | SSS Human Predicted S9 CLint ([9]; single-species scaling from cynomolgus monkey S9 CLint): 1.84 L/h/kg; SSS Human Predicted S9 CLint ([9]; single-species scaling from mouse S9 CLint): 2.59 L/h/kg; SSS Human Predicted S9 CLint ([9]; single-species scaling from rat S9 CLint): 6.84 L/h/kg; Fm,AO, across species ([1]; all species): > 0.70; CLp (plasma clearance) [10]: 298^§ mL/min/kg; CLp (plasma clearance) [11]: 237^§ mL/min/kg; CLp (plasma clearance) [12]: 31^§ mL/min/kg; CLint scaled at 1 μM ([2]; hepatic S9, pH 7.4, CLint (intrinsic clearance) in hepatic S9, rat hepatic S9, in the presence of NADPH): 28 ± 1.62 L/h/kg; Fm,AO Method A (fraction metabolized by AO) ([2]; rat hepatic S9, method A (eq. 4)): 0.74; Fm,AO Method B (fraction metabolized by AO) ([2]; rat hepatic S9, method B (eq. 5), values > 1 assumed equal to 1): 0.72; Fm,AO (fraction metabolized by AO) ([2]; rat hepatic S9, methods A and B taken together (data from Table 3)): 0.72–0.74; CLint scaled at 1 μM ([3]; hepatic S9, pH 7.4, CLint (intrinsic clearance) in hepatic S9, human hepatic S9, in the presence of NADPH, Table 1, triplicate, 2–3 experiments): 1.07 ± 0.106 L/h/kg; CLint scaled at 1 μM ([3]; hepatic S9, pH 7.4, CLint −NADPH, human hepatic S9 without NADPH): 1.03 ± 0.0918 L/h/kg; CLint scaled at 1 μM ([4]; hepatic S9, pH 7.4, CLint (intrinsic clearance) in hepatic S9, mouse hepatic S9, in the presence of NADPH): 19.9 ± 0.678 L/h/kg; Fm,AO (fraction metabolized by AO) ([4]; mouse hepatic S9, methods A and B taken together (data from Table 3)): 0.90; CLint scaled at 1 μM ([5]; hepatic S9, pH 7.4, CLint (intrinsic clearance) in hepatic S9, minipig hepatic S9, in the presence of NADPH): 1.4 ± 0.124 L/h/kg; SSS Human Predicted CLp ([13]; single-species scaling from literature cynomolgus monkey CLp): 0.912 L/h/kg; SSS Human Predicted CLp ([13]; single-species scaling from literature mouse CLp): 2.35 L/h/kg; SSS Human Predicted CLp ([13]; single-species scaling from literature rat CLp): 3.76 L/h/kg; Fm,AO (fraction metabolized by AO) ([8]; methods A and B taken together (data from Table 3)): ≥ 0.90
